The results in this text go back to patent US20240261276A1, “NITROXOLINE FOR USE IN THE TREATMENT OF CUTANEOUS NEUROFIBROMA” (HEALX LTD, priority 2021, published 2024).

The subject of experiment [1] is Tom+ NF1+/− cells. As to the kind of experiment: Cell death assay (DAPI, cytometry) in floating sphere culture, control cells. The format is cell-based, mouse. Particulars: for Cell death of NF1+/− cells at highest concentration: 100 μM, excluded from analysis. On the procedure:
(§1) This study uses a Nf1-KO mouse strain(Prss56Cre/+, R26tdTom/+, NF1fl/fl) developing cutaneous neurofibromas (cNFs) that faithfully recapitulates human disease (Radomska et a., 2019). In this model, simultaneous bi-allelic loss of Nf1 and expression of Tomato fluorescent reporters were targeted into glial-stem like cells at the origin of cNFs. The assay was performed ex vivo using non-adherent cells in which Tomato expressing Nf1−/− and Nf1+/− stem-like cells from skin can be amplified, and their properties further characterized. […] In this system, Nf1−/− cells express high levels of p-ERK (as expected due to the permanent activation of the RAS pathway), proliferate much faster compared to controls and preserve the capacity to reform spheres after dissociation and re-plating.
(§2) This in vitro culture system uses Tomato (Tom)+ stem-like glial cells at the origin of cNFs that can be amplified and propagated for the long periods. Briefly, skin from young mutant (NF1−/−) and control (NF1+/−) mice was dissected, dissociated and cell suspension incubated in the non-adherent condition with the presence of two mitogens, FGF and EGF. In such conditions only stem-like cells survive, proliferate and form compact multicellular floating structures called neurospheres. Since, in addition to the Tom+ glial stem-like cells, skin contains various other types of stem cells (Tom−), the neurospheres are composed of the intermingled Tom+ and Tom− cells. While in the mutant condition, neurospheres contain Tom+, Nf1−/− and Tom−, Nf1+/+ cells, in the Nf1+/− control condition neurospheres are composed of Tom+, Nf1+/− and Tom−, Nf1+/+ cells. In this study we have analysed the drug effect in Tom+ from NF1−/− and NfF1+/− mice.
(§3) In the present study, floating sphere culture of Nf1+/−(Prss56Cre, R26Tom, Nf1flox/+) and Nf1−/− (Prss56Cre, R26Tom, Nf1flox/flox) glial cells isolated from newborn mouse skin were used. Then they are plated and treated and analysed independently. With this intent, Nf1+/− and Nf1−/− spheres were amplified until passage 3 (1 passage corresponds to 7 days of culture). At the end of PO (10 days), cells were split into 4 identical batches (clones 1-4), and were amplified to P3 (FIG. 1).
(§4) At the end of P3, spheres from each clone were dissociated and cells transferred into two 12 well plates. 6 different concentrations (100 μm, 33 μm, 10 μm, 3 μm, 1 μm and 0 μm) of drug were added and cells were incubated for 72 h. An additional 12 well plate containing cells with DMSO (vehicle used for the drug resuspension) was used as a reference for the normalization of results. After 72 h analyses was performed the on the non-fixed cells: proliferative and cell death assay.
(§5) At 72 h of culture, cells were labelled for quantification of cell death using DAPI (4′,6-diamidino-2-phenylindole). Labelled cells were analyzed by cytometry with LSR Fortessa X20 (BD Biosciences).

Experiment [2] deals with Tom+ NF1−/− cells. Nature of the experiment: Proliferative activity (CellTrace, cytometry) in floating sphere culture, mutant cells. The class given is cell-based, mouse. Particulars: for Ratio MIFmean (proliferation): NF1−/− cells, normalised to DMSO. As to the method: as §1, §2, §3, §4
For the analysis of proliferative activity, a cell tracker lipophilic dye (CellTrace Proliferation Kit, Thermo Fishers) was used. The cell tacker was added at the same time as the drugs. Cells were incubated for 72 h and proliferative activity was measured by cytometry analysis using LSR Fortessa X20 (BD Biosciences). This method measures a mean fluorescence intensity (MIF) for each condition. The condition with DMSO was used as a reference.

The test system of experiment [3] is cNF tumour cells (Tom+) in the skin of Nf1-KO mice. Nature of the experiment: In vivo drug testing in Nf1-KO mice with established cNFs. Set-up: species or system mouse. The conditions noted are these: one month. An excerpt: This study uses the same mouse model that was used for in vitro testing, the Prss56Cre/+, R26tdTom/+, NF1f/l mouse (Radomska et a., 2019). This study is a standard experimental design in the field with endpoints being terminal and not longitudinal throughout study.
Prss56Cre/+, R26tdTom/+, NF19/fl herein referred to as Nf1-KO mice develop cNFs after one year of age. However, cNF development occurs at an earlier age after skin injury induced by mice fighting, which is normal mouse behaviour. In this experiment, at least five six-week old Nf1-KO male mice were placed in a cage together, once the mice had sustained a level of skin injury via fighting they were removed from the cage and monitored. At approximately three months of age the mice that had sustained fighting injuries developed several cNFs. As a fluorescent reporter gene is turned on in cells that have Nf1 deleted, cNF development could be monitored via fluorescent imaging of the skin using an epifluorescent microscope (Leica MZ75). After 1-2 months mice that had established, mature cNFs were then enrolled into a drug treatment study. […]
Schwann cells that are Nf1-null also express the fluorescent reporter tomato (Tom+). cNFs are derived from Nf1-null SCs which are Tom+, therefore fluorescence can be used to identify tumours. […]

In experiment [4] the test system is Tom+ NF1+/− cells. Nature of the experiment: Proliferative activity (CellTrace, cytometry) in floating sphere culture, control cells. The format is cell-based, mouse. On the procedure:
This study uses a Nf1-KO mouse strain(Prss56Cre/+, R26tdTom/+, NF1fl/fl) developing cutaneous neurofibromas (cNFs) that faithfully recapitulates human disease (Radomska et a., 2019). In this model, simultaneous bi-allelic loss of Nf1 and expression of Tomato fluorescent reporters were targeted into glial-stem like cells at the origin of cNFs. The assay was performed ex vivo using non-adherent cells in which Tomato expressing Nf1−/− and Nf1+/− stem-like cells from skin can be amplified, and their properties further characterized. […]
This in vitro culture system uses Tomato (Tom)+ stem-like glial cells at the origin of cNFs that can be amplified and propagated for the long periods. […] In this study we have analysed the drug effect in Tom+ from NF1−/− and NfF1+/− mice.
In the present study, floating sphere culture of Nf1+/−(Prss56Cre, R26Tom, Nf1flox/+) and Nf1−/− (Prss56Cre, R26Tom, Nf1flox/flox) glial cells isolated from newborn mouse skin were used. Then they are plated and treated and analysed independently. […]
For the analysis of proliferative activity, a cell tracker lipophilic dye (CellTrace Proliferation Kit, Thermo Fishers) was used. […] Cells were incubated for 72 h and proliferative activity was measured by cytometry analysis using LSR Fortessa X20 (BD Biosciences). This method measures a mean fluorescence intensity (MIF) for each condition. […]

The test system of experiment [5] is Tom+ NF1−/− cells. As to the kind of experiment: Cell death assay (DAPI, cytometry) in floating sphere culture, mutant cells. The class given is cell-based, mouse. Particulars: for Ratio dead cells mean / Cell death of NF1−/− cells at highest concentration: 72 h; for Ratio dead cells mean: NF1−/− cells; for Cell death of NF1−/− cells at highest concentration: 100 μM, excluded from analysis. On the procedure:
as §1, §2, §3, §4, §5

The mark [6] stands for this setting: incubation with Selumetinib, concentration not given.

Regarding `O=[N+]([O-])c1ccc(O)c2ncccc12` [Nitroxoline, 5-nitroquinolin-8-ol], in the experiment on Tom+ NF1+/− cells [1] (33 μM, 72 h), the “Effect on cell death of NF1+/− cells” value is listed as “without affecting NF1+/− cells”. In addition, the “Cell death of NF1+/− cells at highest concentration” value in the experiment on Tom+ NF1+/− cells [1] (72 h) is recorded as “massive cell death”; in the experiment with Tom+ NF1+/− cells [1] (72 h, listed as nitroxoline), “massive nonspecific death”. Also, the “Effect on cell death of NF1+/− cells (control conditions)” value with Tom+ NF1+/− cells [1] (lower concentrations (10 μM and below), 72 h) is listed as “without affecting control conditions”. The “Ratio MIFmean (proliferation)” value with Tom+ NF1−/− cells [2] (1 μM, 72 h) was 0,7+/−0,26; in the experiment with Tom+ NF1−/− cells [2] (3 μM, 72 h) it was 0,60+/−0,22; in the experiment on Tom+ NF1−/− cells [2] (10 μM, 72 h) it was 0,5+/−0,18; with Tom+ NF1−/− cells [2] (33 μM, 72 h), 0,39+/−0,11. In the experiment with Tom+ NF1−/− cells [2] (33 μM to 1 μM, 72 h, except clone 3), the “Effect on proliferative activity of NF1−/− cells” value is recorded as “reduced proliferative activity”. In addition, in experiment [3] (120 mg/kg once daily), the “Overall abundance of cNF tumour cells in the skin” value is on record as “reduces the overall abundance of cNF tumour cells”. In experiment [3] (120 mg/kg oral gavage once a day (5 days on, 2 days off)), the “Tumour size versus vehicle treated mice (fluorescent imaging of Tom+ cells)” value was “smaller”. The “Effect on proliferation of NF1+/− cells” value with Tom+ NF1+/− cells [4] (33 μM to 1 μM, 72 h) is given as “not affected”. The “Ratio dead cells mean” value is listed as 2,04+/−0,63 in the experiment on Tom+ NF1−/− cells [5] (10 μM) and 8,86+/−0,66 in the experiment on Tom+ NF1−/− cells [5] (33 μM). Besides, the “Cell death of NF1−/− cells at highest concentration” value with Tom+ NF1−/− cells [5] is on record as “massive cell death”; in the experiment with Tom+ NF1−/− cells [5] (listed as nitroxoline) it was “massive nonspecific death”.
With `Cn1cnc2c(F)c(Nc3ccc(Br)cc3Cl)c(C(=O)NOCCO)cc21` [Selumetinib, 6-(4-bromo-2-chloroanilino)-7-fluoro-N-(2-hydroxyethoxy)-3-methylbenzimidazole-5-carboxamide], in the experiment with Tom+ NF1+/− cells [1] (setting [6]), the “Effect on death of Nf1+/− cells” value is listed as “without affecting Nf1+/− cells”. For the same compound, the “Effect on proliferative activity of Nf1−/− (mutant) cells” value in the experiment with Tom+ NF1−/− cells [2] (setting [6]) is on record as “decreases proliferative activity”. The “Effect on proliferative activity of Nf1+/− cells” value in the experiment with Tom+ NF1+/− cells [4] (setting [6]) is “without affecting Nf1+/− cells”. Moreover, the “Effect on death of Nf1−/− (mutant) cells” value in the experiment on Tom+ NF1−/− cells [5] (setting [6]) was “promotes death of mutant”.
